Experimental data reported in PMC9186373, “Design, synthesis, and biological evaluation of novel carbazole derivatives as potent DNMT1 inhibitors with reasonable PK properties” (Journal of Enzyme Inhibition and Medicinal Chemistry, 2022).
Where two headings read alike, the source gives them in different places.

Key:
[1] = PK study in SD rats; type: in vivo; conditions: rat, plasma, SD male rats; for AUC(0-t) / Tmax / half-life: mean ± SD (n = 3); for bioavailability: p.o. 10 mg/kg vs i.v. 2 mg/kg, F = (AUC p.o. × Dose i.v.)/(AUC i.v. × Dose p.o.) × 100%
Procedure: In vivo pharmacokinetic properties of WK-22, WK-23, WK-27, and DC_517 were performed by Medicilon Company, Shanghai, China. SPF-grade SD male rats (8 groups, n = 3 rats per group) with a body weight of 230–260 g were purchased from Shanghai SIPPR-BK LAB Animal Ltd., Shanghai, China, and used for the pharmacokinetic analysis of the tested compounds. All animals were deprived of food overnight after the cannulation surgery. Subsequently, the tested compounds WK-23 and DC_517 were dissolved/suspended in 5% DMSO, 10% Solutol, and 85% water, and the tested compounds WK-22 and WK-27 were dissolved/suspended in 5% DMSO, 40% PEG400, and 55% saline for intravenous administration (i.v.) and oral administration (p.o.), respectively. A final dosage of 2.0 and 10.0 mg/kg rat of the formulated compounds was administered for i.v. and p.o. purposes, respectively, and the blood samples were taken at various time points during a 24 h period. At different time points, blood samples were collected from the femoral vein. The plasma samples were obtained after centrifugation (6800 g, 6 min, 2–8 °C) and stored at −80 °C until the assay. The AUC (area under concentration-time curve) was calculated through the trapezoidal rule with extrapolation to time infinity. The concentration of the compounds in the blood was analysed by LC-MS/MS (Shimadzu liquid chromatographic system and SCIEX Triple Quad 5500+ mass spectrometer, Applied Biosystems, Ontario, Canada). The Tmax, T1/2, and Cmax value was obtained through visual inspection of the plasma concentration-time curve. The Vss value was generated from DAS 3.2.8 software. The F value of WK-23 was calculated with the formula: F = (AUC p.o. × Dose i.v.)/(AUC i.v. × Dose p.o.) × 100%.

[2] = tested on: HCT116 (human colon cancer cells); assay: MTT assay, HCT116; type: cell-based
Procedure: The human lung cancer cells (A549) and human colon cancer cells (HCT116) were cultured in an RPMI-1640 medium containing 10% FBS, 100 U/mL streptomycin, and 100 U/mL penicillin at 37 °C in a humidified atmosphere with 5% CO2. All compounds were dissolved in DMSO and stock solutions were stored at −20 °C. Reagents were freshly diluted to the marked concentrations with a culture medium before use. DMSO concentration in experimental conditions never exceeded 0.1% (v/v). All cell lines were provided by the cell laboratory, School of pharmaceutical sciences, Guangzhou Medical University.
Cell viability was detected using an MTT assay kit. Cells were seeded into 96-well plates at a density of ∼1.0 × 10^4/well. 24 h later, sextuplicate wells were treated with media and new compounds at a fixed concentration (50 µM). After 24, 48, and 72 h, the drug-containing medium was replaced by a 100 µL fresh medium with 5 mg/mL MTT solution. After 4 h of incubation, the medium with MTT was removed, and 100 µL of DMSO was added to each well. The plates were gently agitated until the purple formazan crystals were dissolved, and the OD490 was determined using a […] (Olympus BX53, Japan). The data were calculated and plotted as the percent viability compared to the control.

[3] = HCT-116, 24 h, read-out: Inh % at 50 μM, HCT116, 24 h
[4] = HCT-116, 48 h, read-out: Inh % at 50 μM, HCT116, 48 h
[5] = HCT-116, 72 h, read-out: Inh % at 50 μM, HCT116, 72 h

Q: Which AUC(0-t) ([1]; iv, i.v. (2 mg/kg)) does the source give for CC(C)NCC(O)COC(Cn1c2ccc(F)cc2c2cc(F)ccc21)Cn1c2ccc(F)cc2c2cc(F)ccc21 (stereo not shown) [WK-22, 1-((1,3-Bis(3,6-difluoro-9H-carbazol-9-yl)propan-2-yl)oxy)-3-(isopropylamino)propan-2-ol] here?
A: 867 ± 15.9 ng·h/mL

Q: And the Tmax ([1]; iv, i.v. (2 mg/kg))?
A: 0.1 h

Q: And the half-life ([1]; iv, i.v. (2 mg/kg))?
A: 12.2 ± 0.8 h

Q: And the bioavailability ([1]; oral)?
A: 27%

Q: And the bioavailability ([1]; po)?
A: 27 ± 4.6%

Q: What about the AUC(0-t) ([1]; po, p.o. (10 mg/kg)) of the same molecule?
A: 1170 ± 197 ng·h/mL

Q: And the Tmax ([1]; po, p.o. (10 mg/kg))?
A: 7.3 ± 1.2 h

Q: What about the half-life ([1]; po, p.o. (10 mg/kg)) of the same molecule?
A: 8.8 ± 1.3 h

Q: What about the melting point of the same molecule?
A: 89 to 91 °C

Q: What about the inhibition at 50 µM [2, 3] of the same molecule?
A: 77.6%

Q: What about the inhibition at 50 µM [2, 4] of the same molecule?
A: 91.8%

Q: And the inhibition at 50 µM [2, 5]?
A: 97.4%

Q: For CC(C)NCC(O)COC(Cn1c2ccccc2c2cc(F)ccc21)Cn1c2ccccc2c2cc(F)ccc21 (stereo not shown) [WK-23, 1-((1,3-bis(3-fluoro-9H-carbazol-9-yl)propan-2-yl)oxy)-3-(isopropylamino)propan-2-ol], which AUC(0-t) ([1]; iv, i.v. (2 mg/kg)) is on record?
A: 1060 ± 121 ng·h/mL

Q: What about the Tmax ([1]; iv, i.v. (2 mg/kg)) of the same molecule?
A: 0.08 h

Q: What about the half-life ([1]; iv, i.v. (2 mg/kg)) of the same molecule?
A: 7.9 ± 1 h

Q: What about the bioavailability ([1]; po) of the same molecule?
A: 37.1 ± 1.7%

Q: What about the AUC(0-t) ([1]; po, p.o. (10 mg/kg)) of the same molecule?
A: 1970 ± 91.1 ng·h/mL

Q: And the Tmax ([1]; po, p.o. (10 mg/kg))?
A: 6.7 ± 1.2 h

Q: And the half-life ([1]; po, p.o. (10 mg/kg))?
A: 6.5 ± 0.3 h

Q: And the inhibition at 50 µM [2, 3]?
A: 87.7%

Q: What about the inhibition at 50 µM [2, 4] of the same molecule?
A: 92.9%

Q: And the inhibition at 50 µM [2, 5]?
A: 97.5%
